According to ChEMBL document CHEMBL5143555, “Potentiating the intracellular killing of Staphylococcus aureus by dihydroquinazoline analogues as NorA efflux pump inhibitor” (Bioorg Med Chem, 2022):
In brackets after ≈: the same amount, converted by molar mass. Activity calls are given as the source filed them. The rule behind the calls is not given here.

How the values were obtained:
[1] = molecular target: T1, Quinolone resistance protein NorA (Staphylococcus aureus) (UniProt P0A0J7); assay: Inhibition of NorA in Staphylococcus aureus 1199B assessed as potentiation of norfloxacin-induced antibacterial activity by measuring Norfloxacin MIC at sub MIC relative to norfloxacin MIC alone
T1 sequence (whole entry): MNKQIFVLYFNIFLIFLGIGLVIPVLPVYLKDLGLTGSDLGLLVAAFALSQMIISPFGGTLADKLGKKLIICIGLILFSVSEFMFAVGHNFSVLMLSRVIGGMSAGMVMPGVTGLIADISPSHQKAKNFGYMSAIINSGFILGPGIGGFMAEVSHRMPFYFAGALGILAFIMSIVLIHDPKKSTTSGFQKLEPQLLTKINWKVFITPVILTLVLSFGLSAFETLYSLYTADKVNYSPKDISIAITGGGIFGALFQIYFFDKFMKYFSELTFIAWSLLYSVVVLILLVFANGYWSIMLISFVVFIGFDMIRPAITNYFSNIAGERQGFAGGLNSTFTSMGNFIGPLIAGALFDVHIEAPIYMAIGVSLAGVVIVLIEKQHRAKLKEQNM

[2] = molecular target: T1, Quinolone resistance protein NorA (Staphylococcus aureus); assay: Inhibition of NorA in Staphylococcus aureus 1199B assessed as potentiation of ethidium bromide-induced antibacterial activity by measuring fractional inhibitory concentration
[3] = molecular target: T1, Quinolone resistance protein NorA (Staphylococcus aureus); assay: Inhibition of NorA in Staphylococcus aureus 1199B assessed as potentiation of ethidium bromide-induced antibacterial activity by measuring ethidium bromide MIC at sub MIC relative to ethidium bromide MIC alone
[4] = molecular target: T1, Quinolone resistance protein NorA (Staphylococcus aureus); assay: Inhibition of NorA in Staphylococcus aureus 1199B assessed as potentiation of norfloxacin-induced antibacterial activity by measuring fractional inhibitory concentration
[5] = molecular target: T1, Quinolone resistance protein NorA (Staphylococcus aureus); assay: Inhibition of NorA in Staphylococcus aureus 1199B assessed as accumulation of norfloxacin at 2.5 ug/ml by measuring fluorescence intensity measured at 5 mins interval for 40 mins by fluorescence spectrophotometry; settings: dose 2.5 µg/ml
Staphylococcus aureus [6] = assay: Antibacterial activity against Staphylococcus aureus 1199B measured after 24 hrs by Muller Hinton broth based MTT assay; type: functional
[7] = molecular target: T1, Quinolone resistance protein NorA (Staphylococcus aureus); assay: Inhibition of NorA in Staphylococcus aureus 1199B assessed as potentiation of ethidium bromide-induced antibacterial activity by measuring ethidium bromide MIC at sub MIC
[8] = molecular target: T1, Quinolone resistance protein NorA (Staphylococcus aureus); assay: Inhibition of NorA in Staphylococcus aureus 1199B assessed as accumulation of ethidium bromide at 2.5 ug/ml by measuring fluorescence intensity measured at 5 mins interval for 40 mins by fluorescence spectrophotometry; settings: dose 2.5 µg/ml
[9] = molecular target: T1, Quinolone resistance protein NorA (Staphylococcus aureus); assay: Inhibition of NorA in Staphylococcus aureus 1199B assessed as potentiation of norfloxacin-induced antibacterial activity by measuring Norfloxacin MIC at sub MIC
Staphylococcus aureus [10] = assay: Antibacterial activity against Staphylococcus aureus 1199 measured after 24 hrs by Muller Hinton broth based MTT assay; type: functional
[11] = Cytotoxicity against kidney epithelial cells (unknown origin) assessed as cell viability at 50 ug/mL measured after 24 hrs by alamar blue assay relative to control; type: toxicity, cell-based, Fetal kidney cell; settings: at 50 µg/mL, read-out: Activity
[12] = molecular target: T1, Quinolone resistance protein NorA (Staphylococcus aureus); assay: Inhibition of NorA in Staphylococcus aureus 1199B infected human THP-1 cells assessed as potentiation of norfloxacin-induced bactericidal activity by measuring log reduction in bacterial count measured after 24 hrs relative to vancomycin; type: cell-based
Staphylococcus aureus [13] = assay: Antibacterial activity against Staphylococcus aureus K1758 measured after 24 hrs by Muller Hinton broth based MTT assay; type: functional
[14] = molecular target: T1, Quinolone resistance protein NorA (Staphylococcus aureus); assay: Inhibition of NorA in Staphylococcus aureus 1199B infected human THP-1 cells assessed as potentiation of norfloxacin-induced bactericidal activity by measuring reduction in intracellular proliferation at modulatory concentration measured after 24 hrs; type: cell-based
Staphylococcus aureus [15] = assay: Up regulation of NorA gene expression in Staphylococcus aureus 1199B at 3.9 ug/ml measured after 2 hrs by qRT-PCR analysis relative to control; type: functional; settings: dose 3.9 µg/ml
[16] = molecular target: T1, Quinolone resistance protein NorA (Staphylococcus aureus); assay: Inhibition of NorA in Staphylococcus aureus 1199B assessed as accumulation of ethidium bromide at 3.9 ug/ml by measuring fluorescence intensity measured at 5 mins interval for 40 mins by fluorescence spectrophotometry; settings: dose 3.9 µg/ml
[17] = molecular target: T1, Quinolone resistance protein NorA (Staphylococcus aureus); assay: Inhibition of NorA in Staphylococcus aureus 1199B infected human THP-1 cells assessed as potentiation of norfloxacin-induced bactericidal activity by measuring reduction in bacterial count at modulatory concentration measured after 24 hrs; type: cell-based
[18] = molecular target: T1, Quinolone resistance protein NorA (Staphylococcus aureus); assay: Inhibition of NorA in Staphylococcus aureus 1199B assessed as accumulation of norfloxacin at 3.9 ug/ml by measuring fluorescence intensity measured at 5 mins interval for 40 mins by fluorescence spectrophotometry; settings: dose 3.9 µg/ml
[19] = molecular target: T1, Quinolone resistance protein NorA (Staphylococcus aureus); assay: Inhibition of NorA in Staphylococcus aureus 1199B infected human THP-1 cells assessed as potentiation of 3.1 ug/ml norfloxacin-induced bactericidal activity by measuring log reduction in bacterial count at 15.6 ug/ml measured after 24 hrs relative to control; type: cell-based; settings: dose 15.6 µg/ml
Staphylococcus aureus [20] = assay: Up regulation of NorA gene expression in Staphylococcus aureus 1199B at 3.9 ug/ml measured after 2 hrs in presence of norfloxacin by qRT-PCR analysis relative to control; type: functional; settings: dose 3.9 µg/ml
[21] = molecular target: T1, Quinolone resistance protein NorA (Staphylococcus aureus); assay: Inhibition of NorA in Staphylococcus aureus 1199B assessed as potentiation of 3.1 ug/mL norfloxacin-induced bactericidal activity by measuring log reduction in bacterial count at 7.8 ug/mL measured after 8 hrs by time-kill kinetics assay; settings: dose 7.8 µg/ml
[22] = molecular target: T1, Quinolone resistance protein NorA (Staphylococcus aureus); assay: Inhibition of NorA in Staphylococcus aureus 1199B assessed as potentiation of ethidium bromide-induced bactericidal activity at 7.8 ug/ml measured after 24 hrs by time-kill kinetics assay; settings: dose 7.8 µg/ml
[23] = molecular target: T1, Quinolone resistance protein NorA (Staphylococcus aureus); assay: Inhibition of NorA in Staphylococcus aureus 1199B infected human THP-1 cells assessed as potentiation of norfloxacin-induced bactericidal activity by measuring reduction in bacterial count at modulatory concentration measured after 24 hrs relative to control; type: cell-based
[24] = molecular target: T1, Quinolone resistance protein NorA (Staphylococcus aureus); assay: Inhibition of NorA in Staphylococcus aureus 1199B infected human THP-1 cells assessed as potentiation of norfloxacin-induced bactericidal activity by measuring reduction in intracellular invasion at modulatory concentration measured after 24 hrs; type: cell-based
[25] = molecular target: T1, Quinolone resistance protein NorA (Staphylococcus aureus); assay: Inhibition of NorA in Staphylococcus aureus 1199B assessed as potentiation of norfloxacin-induced morphological changes by measuring appearance of plicated and with cracked surface at sub MIC by field emission scanning electron microscopy
Staphylococcus aureus [26] = assay: Down regulation of NorA gene expression in Staphylococcus aureus 1199B at 3.1 ug/ml measured after 2 hrs by qRT-PCR analysis relative to control; type: functional; settings: dose 3.1 µg/ml
[27] = molecular target: T1, Quinolone resistance protein NorA (Staphylococcus aureus); assay: Inhibition of NorA in Staphylococcus aureus 1199B infected human THP-1 cells assessed as potentiation of 6.2 ug/ml norfloxacin-induced bactericidal activity by measuring log reduction in bacterial count at 15.6 ug/ml measured after 24 hrs relative to control; type: cell-based; settings: dose 15.6 µg/ml
Staphylococcus aureus [28] = assay: Down regulation of NorA gene expression in Staphylococcus aureus 1199B at 3.9 ug/ml measured after 2 hrs by qRT-PCR analysis; type: functional; settings: dose 3.9 µg/ml
Staphylococcus aureus [29] = assay: Down regulation of NorA gene expression in Staphylococcus aureus 1199B at 3.1 ug/ml measured after 2 hrs in presence of norfloxacin by qRT-PCR analysis relative to norfloxacin; type: functional; settings: dose 3.1 µg/ml
[30] = molecular target: T1, Quinolone resistance protein NorA (Staphylococcus aureus); assay: Inhibition of NorA in Staphylococcus aureus 1199B assessed as potentiation of norfloxacin-induced morphological changes by measuring appearance of rough and dented cell at sub MIC by field emission scanning electron microscopy
[31] = molecular target: T1, Quinolone resistance protein NorA (Staphylococcus aureus); assay: Inhibition of NorA in Staphylococcus aureus 1199B assessed as potentiation of ethidium bromide-induced bactericidal activity at 15.6 ug/ml measured within 8 hrs by time-kill kinetics assay; settings: dose 15.6 µg/ml
[32] = molecular target: T1, Quinolone resistance protein NorA (Staphylococcus aureus); assay: Inhibition of NorA in Staphylococcus aureus 1199B infected human THP-1 cells assessed as potentiation of norfloxacin-induced bactericidal activity by measuring reduction in bacterial count at 1.7 to 3.4 ug/ml measured after 24 hrs relative to control; type: cell-based; settings: dose 1.7-3.4 µg/ml

SMILES | fold change (FC) [1] | fractional inhibitory concentration index (FICI) [2] | fold change (FC) [3] | fractional inhibitory concentration index (FICI) [4] | MIC (Staphylococcus aureus [6]) [µg/mL] | MIC [7] [µg/mL] | MIC [9] [µg/mL] | MIC (Staphylococcus aureus [10]) [µg/mL] | viability at 24 h, 50 ug/mL [11] [%] | FC [12] | MIC (Staphylococcus aureus [13]) [µg/mL] | inhibition [14] | Flu intensity [16] | Activity [17] [log10CFU/ml] | Flu intensity [18] | Activity [21] [log10CFU/ml] | fold change (FC) [23] | inhibition [24] | other results
N#CC(C#N)=NNc1cccc(Cl)c1 [CARBONYL CYANIDE M-CHLOROPHENYLHYDRAZONE] | 8 | 0.562 | 16 | 0.625 | 20 (≈ 97.7 µM) | 3.1 | 6.2 |  |  |  |  |  |  |  |  |  |  |  | Flu intensity [5]: 695; Flu intensity [8]: 149
Brc1ccc(C2=NC(c3ccc(Br)cc3)Nc3ccccc32)cc1 (stereo not given) | 16 | 0.266 | 4 | 0.078 | 500 (≈ 1130 µM) | 12.5 | 3.1 | 125 (≈ 283 µM) | 93.6 | 3 | 15.6 (≈ 35.3 µM) | Active | 127 | 4.13 | 13000 | > 3 | 4 | Active | fold change (FC) (Staphylococcus aureus [15]): 3; FC [19]: 5; fold change (FC) (Staphylococcus aureus [20]): 3; inhibition [22]: Active; inhibition [25]: Active
C=CCOc1ccc(C2N=C(c3ccccc3)c3cc(Cl)ccc3N2C)cc1 (stereo not given) | 8 | 0.281 | 4 | 0.141 | 500 (≈ 1290 µM) | 12.5 | 6.2 | 125 (≈ 321 µM) | 94.8 | 3 | 31.2 (≈ 80.2 µM) | Active | 173 | 4.25 | 15400 | > 3 | 4 | Active | fold change (FC) (Staphylococcus aureus [26]): 8; FC [27]: 5; Activity (Staphylococcus aureus [28]): Active; fold change (FC) (Staphylococcus aureus [29]): 9; inhibition [30]: Active; inhibition [31]: Active
CN[C@H](CC(C)C)C(=O)N[C@H]1C(=O)N[C@@H](CC(N)=O)C(=O)N[C@H]2C(=O)N[C@H]3C(=O)N[C@H](C(=O)N[C@H](C(=O)O)c4cc(O)cc(O)c4-c4cc3ccc4O)[C@H](O)c3ccc(c(Cl)c3)Oc3cc2cc(c3O[C@@H]2O[C@H](CO)[C@@H](O)[C@H](O)[C@H]2O[C@H]2C[C@](C)(N)[C@H](O)[C@H](C)O2)Oc2ccc(cc2Cl)[C@H]1O [VANCOMYCIN] |  |  |  |  | 1.7 (≈ 1.17 µM) |  |  | 0.42 (≈ 0.29 µM) |  |  | 0.1 (≈ 0.069 µM) |  |  |  |  |  |  |  | fold change (FC) [32]: 2
